Data as given in patent publication US11420910B2, “Methods for low temperature fluorine-18 radiolabeling of biomolecules” (KATHOLIEKE UNIVERSITEIT LEUVEN, priority 2014, dated 2022).
Values joined by “and” are separate entries in the source; they are usually repeats but may differ in a detail not shown here. Identical values can stand only once. “Also recorded” adds a separate entry of the source. Blank lines part the entries; values can stand above or below the compound they belong to.

How the values were obtained:
[1] = Stability tests in PBS (0.1 M, pH 7.4) at 37° C., Examples 29 and 33; assay type: physicochemical; conditions: for % intact tracer: PBS 0.1M pH 7.4, 37° C.; for stability in PBS (in words): 37° C.
Experimental: (§5) These mixtures were incubated at 37° C. and analysed by iTLC-SG at 10, 30, 60, 120, 180 and 240 min after the start of the incubation (N=3). Serum samples were denatured by addition of 50 μl of the serum solution to 50 μl of acetonitrile. The mixture was stirred and centrifuged (1300 g, 3 min). Finally the supernatant was analysed using iTLC-SG.

[2] = Stability tests of Al18F-complexes in PBS (0.1 M, pH 7) at 37° C., Example 26; assay type: physicochemical; conditions: PBS 0.1 M pH 7, 37° C.
Experimental: (§1) 400 μl of each purified [Al^18F]-complex solution was added to 1 mL of PBS and/or 1 mL of rat serum. […] Finally the supernatant was analysed using iTLC-SG.

[3] = Stability tests of Al18F-complexes in rat serum at 37° C., Example 26; assay type: in vitro ADME
Experimental: as §1

PSMA = biological target: T1, PSMA (Mus musculus, UniProt O35409); experiment: Biodistribution of PSMA tracers in mice with or without coadministration of 2-PMPA; assay type: in vivo
T1 construct: organs with reported high expression of PSMA such as kidney; from tissue; host or cells: living mice; kidney, spleen and other organs counted ex vivo
Experimental: The compounds ^68Ga-HBED-CC-PSMA, Al^18F-L6-PSMA, Al^18F-L27-PSMA or Al^18F-NODA-MPAA-PSMA were injected via the tail vain (1-2 MBq) with or without coadministration of 2 mg/kg 2-PMPA. At 10 min or 60 min p.i. (N=4), the animals were sacrificed. Blood and major organs were collected in tarred tubes and weighed. The radioactivity was measured using an automated γ-counter and calculated as % ID and % ID/g.
(§2) Quantification of radioactivity during biodistribution studies was performed using an automated gamma counter equipped with a 3-inch NaI(TI) well crystal coupled to a multichannel analyzer, mounted in a sample changer (Perkin Elmer 1480 Wizard 3q). Counts were corrected for background radiation, physical decay and counter dead time.

[4] = Biodistribution of Al18F-complexes and {Al18F}2+ in healthy male NMRI mice; assay type: in vivo; conditions: for uptake in blood / uptake in bone / uptake in intestines / uptake in kidneys / uptake in liver / uptake in urinary bladder: NMRI mice, tail vein
Experimental: as §2
(§3) The biodistribution of the [Al^18F]-L3 complex and {Al^18F}^2+ was determined in healthy male Naval Medical Research Institute (NMRI) mice (body weight: 30-40 g) at 10 and 60 min post injection (p.i.) (n=4/time point). Mice were injected with the [Al^18F]-L3 complex (about 1 MBq) or {Al^18F}^2+ (5.55 MBq) via a tail vein under anesthesia (2.5% isoflurane in O2 at 1 L/min flow rate) and sacrificed by decapitation at above specified time points. Blood and major organs were collected in tared tubes and weighed. The radioactivity in blood, organs and other body parts was counted using an automated γ-counter. For the calculation of total radioactivity in blood, bone and muscle, masses were assumed to be, respectively, 7, 12 and 40% of the total body mass.^20, 21
as §2, with “Nai(TI)” for “NaI(TI)”
as §3, with “[Al^18F]-L26” for “[Al^18F]-L3”, “(n=3/time point for 10 min p.i. and n=4/time point for 60 min p.i.).” for “(n=4/time point).”, “mass.^20,21” for “mass.^20, 21”

[5] = Stability tests in rat serum at 37° C., Examples 29 and 33
Experimental: as §5

[6] = Stability tests of Al18F-complexes in different buffers ranging from pH 2 to 8 (room temperature, iTLC-SG); assay type: physicochemical; conditions: buffers pH 2 to 8, room temperature, 30 and 60 min
Experimental: (§4) 200 μl of the purified Al^18F-L3 solution was added to 1 mL of sodium phosphate buffer (0.1 M, pH 2), sodium phosphate buffer (0.1 M, pH 3), sodium acetate buffer (0.1 M, pH 4), sodium acetate buffer (0.1 M, pH 5), sodium acetate buffer (0.1 M, pH 6), PBS buffer (0.1 M, pH 7) or Tris-HCl buffer (0.1 M, pH 8). These mixtures were incubated at room temperature and analyzed by iTLC-SG at 30 and 60 min after the start of the incubation.
as §4, with “Al^18F-L26” for “Al^18F-L3”

T1 sequence (O35409 whole entry): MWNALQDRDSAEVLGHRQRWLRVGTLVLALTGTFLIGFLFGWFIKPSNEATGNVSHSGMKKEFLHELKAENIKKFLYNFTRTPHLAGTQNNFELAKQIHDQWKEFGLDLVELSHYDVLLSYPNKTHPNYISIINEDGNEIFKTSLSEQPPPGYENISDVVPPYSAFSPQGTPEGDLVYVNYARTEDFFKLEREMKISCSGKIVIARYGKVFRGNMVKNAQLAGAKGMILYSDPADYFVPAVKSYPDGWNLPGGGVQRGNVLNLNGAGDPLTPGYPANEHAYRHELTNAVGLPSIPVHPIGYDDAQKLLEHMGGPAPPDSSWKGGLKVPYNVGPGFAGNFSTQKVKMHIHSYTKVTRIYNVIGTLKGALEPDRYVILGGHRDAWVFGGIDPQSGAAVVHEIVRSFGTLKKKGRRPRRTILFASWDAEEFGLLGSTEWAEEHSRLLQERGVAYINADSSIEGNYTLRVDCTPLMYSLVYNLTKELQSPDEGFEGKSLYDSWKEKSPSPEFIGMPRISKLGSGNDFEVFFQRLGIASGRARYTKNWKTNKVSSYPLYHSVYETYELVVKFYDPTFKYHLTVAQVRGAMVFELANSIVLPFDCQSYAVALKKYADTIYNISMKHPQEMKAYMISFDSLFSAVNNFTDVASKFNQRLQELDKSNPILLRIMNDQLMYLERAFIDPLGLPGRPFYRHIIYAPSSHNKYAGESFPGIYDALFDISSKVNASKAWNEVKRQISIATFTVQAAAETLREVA

% intact tracer ([1]; 1 h): 0%
stability in PBS (in words) [1]: unstable
SMILES: O=C1CN2CC(=O)[O][Al-]([18F])([O]1)[O]C(=O)CN(Cc1ccccc1)c1ccccc12 [Al^18F-L32]

stability in PBS (in words) [2]: do not seem to be stable
stability in rat serum (in words) [3]: unstable in serum
RCP ([3]; 120 min): 0%
SMILES: O=C1CN2CCN(Cc3ccccc3)CC(=O)[O][Al-]([18F])([O]1)[O]C(=O)C2 [Al^18F-L1]

stability in PBS (in words) [2]: do not seem to be stable
RCP ([2]; 120 min): 31%
stability in rat serum (in words) [3]: unstable in serum
RCP ([3]; 120 min): 0%
SMILES: O=C1CN(Cc2ccccc2O)CCN2CC(=O)[O][Al-]([18F])([O]1)[O]c1ccccc1C2 (stereo not shown) [Al^18F-L2]

RCP ([2]; 120 min): 85%
RCP ([2]; 240 min): 74%
stability in rat serum (in words) [3]: good stability in rat serum
RCP ([3]; 240 min): 41%
SMILES: O=C1CN(Cc2ccccc2)CCN2CC(=O)[O][Al-]([18F])([O]1)[O]c1ccc(F)cc1C2 (stereo not shown) [Al^18F-L4]
stability in PBS (in words) [2]: comparable to that of Al^18F-NODA-benzyl up to 60 minutes

stability in PBS (in words) [2]: do not seem to be stable
SMILES: O=C1CN(Cc2ccccc2)CCN(Cc2ccccn2)CC(=O)[O][Al]([18F])[O]1 [Al^18F-L7]

RCP ([2]; 120 min): 78%
RCP ([2]; 240 min): 65%
stability in rat serum (in words) [3]: good stability in rat serum
RCP ([3]; 240 min): 39%
SMILES: O=C1CN(Cc2ccccc2)CCN2CC(=O)[O][Al-]([18F])([O]1)[O]c1ccc([N+](=O)[O-])cc1C2 (stereo not shown) [Al^18F-L5]
stability in PBS (in words) [2]: comparable to that of Al^18F-NODA-benzyl up to 60 minutes

SMILES: O=C([O-])CN(CCN(CC(=O)[O-])Cc1cc(CCC(=O)NCCCCCC(=O)NCCCC[C@H](NC(=O)N[C@@H](CCC(=O)O)C(=O)O)C(=O)O)ccc1[O-])Cc1cc(CCC(=O)O)ccc1[O-].[68Ga+3].[OH3+] [^68Ga-HBED-CC-PSMA]
affinity for the PSMA receptor indicated by spleen and kidney uptake (in words) (PSMA): high affinity for the PSMA receptor
in vivo stability judged from bone uptake (in words) (PSMA): high in vivo stability
kidney and spleen retention when 2-PMPA was coinjected (in words) (PSMA; 60 min p.i., 2 mg/kg 2-PMPA): nearly completely blocked
retention in kidney (PSMA; 60 min p.i., without 2-PMPA): 269.90±47.23 % ID/g
retention in spleen (PSMA; 60 min p.i., without 2-PMPA): 2.72±0.42 % ID/g
bone uptake (PSMA; tail vein, time point not stated): 0.39±0.09 % ID/g

% intact tracer ([1]; 1 h): 0%
stability in PBS (in words) [1]: unstable
SMILES: O=C1CN2CC(=O)[O][Al-]([18F])([O]1)[O]C(=O)CN(Cc1ccccc1)C1CCCC12 (stereo not shown) [Al^18F-L31]

SMILES: O=C1CN2CC(=O)[O][Al-]([18F])([O]1)[O]C(=O)CN(Cc1ccccc1)[C@@H]1CCCC[C@H]12 (racemic) [Al^18F-L26]
% intact tracer ([1]; 10 min): 99.1%
% intact tracer ([1]; 30 min): 98.0%
% intact tracer ([1]; 1 h): 97.8%
% intact tracer ([1]; 2 h): 91.0%
% intact tracer ([1]; 3 h): 95.3%
% intact tracer ([1]; 4 h): 87.3%
stability in PBS (in words) [1]: excellent stability; also recorded: stability comparable to that of the previously reported Al^18F-NODA
uptake in blood ([4]; 10 min p.i.): 2.0 % ID and 1.9 % ID
uptake in bone ([4]; 10 min p.i.): 1.6 % ID
uptake in intestines ([4]; 10 min p.i.): 19.6 % ID
uptake in kidneys ([4]; 10 min p.i.): 4.6 % ID
uptake in liver ([4]; 10 min p.i.): 49.5 % ID
uptake in urinary bladder ([4]; 10 min p.i.): 14.3 % ID
uptake in blood ([4]; 60 min p.i.): 0.1 % ID
uptake in bone ([4]; 60 min p.i.): 1.9 % ID
uptake in intestines ([4]; 60 min p.i.): 62.7 % ID
uptake in kidneys ([4]; 60 min p.i.): 0.2 % ID
uptake in liver ([4]; 60 min p.i.): 8.8 % ID
uptake in urinary bladder ([4]; 60 min p.i.): 21.5 % ID
route of clearance (in words) ([4]; mice, 60 min p.i.): hepatobiliary clearance
in vivo stability judged from bone uptake (in words) ([4]; mice, biodistribution): high stability
stability in rat serum (in words) [5]: excellent stability; also recorded: stability comparable to that of the previously reported Al^18F-NODA
% intact tracer ([5]; 10 min): 97.2%
% intact tracer ([5]; 30 min): 99.0%
% intact tracer ([5]; 1 h): 98±2.3% and 97.3%
% intact tracer ([5]; 2 h): 86.7%
% intact tracer ([5]; 3 h): 91.6%
% intact tracer ([5]; 4 h): 91±2.4% and 91.2%
stability at different pH (in words) [6]: stable for at least 60 min in the pH range from 2 to 8

SMILES: [18F][Al+2] [{Al^18F}^2+, reference compound]
uptake in blood ([4]; 10 min p.i.): 5.0 % ID
uptake in bone ([4]; 10 min p.i.): 60 % ID
uptake in intestines ([4]; 10 min p.i.): 4.22 % ID
uptake in kidneys ([4]; 10 min p.i.): 2.2 % ID
uptake in liver ([4]; 10 min p.i.): 3.71 % ID
uptake in urinary bladder ([4]; 10 min p.i.): 20.7 % ID
uptake in blood ([4]; 60 min p.i.): 0.6 % ID
uptake in bone ([4]; 60 min p.i.): 83 % ID and 83.3 % ID
uptake in intestines ([4]; 60 min p.i.): 1.91 % ID
uptake in kidneys ([4]; 60 min p.i.): 0.5 % ID
uptake in liver ([4]; 60 min p.i.): 0.55 % ID
uptake in urinary bladder ([4]; 60 min p.i.): 30.6 % ID

RCP ([2]; 60 min): 99%
RCP ([2]; 120 min): 98%
RCP ([2]; 240 min): 88%
RCP ([3]; 60 min): 99%
RCP ([3]; 120 min): 97%
RCP ([3]; 240 min): 87%
SMILES: O=C1CN2CCN(CCN(Cc3ccccc3)CC2)CC(=O)[O][Al]([18F])[O]1 [Al^18F-NODA-benzyl, reference compound]

stability in PBS (in words) [1]: only moderate stability
SMILES: O=C1CN2CC(=O)[O][Al-]([18F])([O]1)[O]C(=O)CN(Cc1ccccc1)C1CC=CCC12 (stereo not shown) [Al^18F-L30]
